Test results: patent US20230338564A1, “NEODEGRADER CONJUGATES” (Orum Therapeutics, Inc., priority 2020, published 2023)

Tests used:
Assay in all cases: In vitro antiproliferation assay, General Procedure 1 (WST-8)
Format in all cases: cell-based
[1] = test system: NCI-N87 gastric cancer cell line; settings: NCI-N87 cells; neoDegrader conjugates (DAR 8) versus comparators; FIGS. 16 and 17
Description: (§1) The ability of neoDegrader conjugates to inhibit cell growth was measured using in vitro anti-proliferation assay. […] Conjugates were diluted in complete cell growth medium using 4-fold serial dilutions and 100 µL was added per well. […] Viability of remaining cells was determined by colorimetric WST-8 assay (Dojindo Molecular Technologies, Inc., Rockville, MD, US). WST-8 was added to 10% of the final volume and plates were incubated at 37° C. in a humidified 5% CO2 incubator for 2-4 hours. Plates were analyzed by measuring the absorbance at 450 nm (A450) in a multi-well plate reader. Background A450 absorbance of wells with media and WST-8 only was subtracted from all values. The percent viability was calculated by dividing each treated sample value by the average value of wells with untreated cells. The percent viability value was plotted against the test sample concentration in a semi-log plot for each treatment. IC50 values were calculated automatically.

[2] = test system: SK-BR-3 breast cancer cell line; settings: SK-BR-3 cells; neoDegrader conjugates (DAR 8) versus comparators; FIGS. 7 and 8
Description: as §1

[3] = test system: HL-60 (acute myeloid leukemia) cell line; settings: AML; conjugates DAR 8, Mylotarg DAR not given
Description: as §1

## Pertuzumab [reference compound]
[1]
  anti-proliferative activity compared, in words: significantly less active
[2]
  anti-proliferative activity compared, in words: significantly less active

B1: Lintuzumab IgG1-Compound (Ia) (conjugate, chains of the INN, looked up)
VH: QVQLVQSGAEVKKPGSSVKVSCKASGYTFTDYNMHWVRQAPGQGLEWIGYIYPYNGGTGYNQKFKSKATITADESTNTAYMELSSLRSEDTAVYYCARGRPAMDYWGQGTLVTVSS
VL: DIQMTQSPSSLSASVGDRVTITCRASESVDNYGISFMNWFQQKPGKAPKLLIYAASNQGSGVPSRFSGSGSGTDFTLTISSLQPDDFATYYCQQSKEVPWTFGQGTKVEIK
modifications: IgG1 conjugated to Compound (Ia)
[3]
  IC50: 0.012 nM

B2: Lintuzumab IgG1-Compound (Id) (conjugate, chains of the INN, looked up)
VH: QVQLVQSGAEVKKPGSSVKVSCKASGYTFTDYNMHWVRQAPGQGLEWIGYIYPYNGGTGYNQKFKSKATITADESTNTAYMELSSLRSEDTAVYYCARGRPAMDYWGQGTLVTVSS
VL: DIQMTQSPSSLSASVGDRVTITCRASESVDNYGISFMNWFQQKPGKAPKLLIYAASNQGSGVPSRFSGSGSGTDFTLTISSLQPDDFATYYCQQSKEVPWTFGQGTKVEIK
modifications: IgG1 conjugated to Compound (Id)
[3]
  IC50: > 0.05 nM
